Like-named read-outs stand apart in the source and are kept apart here.
Tested on: Coptotermes formosanusus Shiraki
Assay: Termite control soil treatment test (Japan Wood Preservation Association Standards No. 13, 1987): bored depth, damage by eating, termite control effect
Format: in vivo
Settings: for Bored depth (mm) 14 days later: treated soil layer 1 cm
From the text: In the description of these embodiments, the term “part(s)” means part(s) by weight. The test method of embodiments was in accordance with Japan Wood Preservation Association Standards No. 13, 1987, “Standards for Testing Methods of Termite Controlling Effects and Performance of Termite Controlling Agents for Soil Treatment (I)”.
A testing apparatus was used in which two glass cylinders (each about 5 cm in diameter and about 12 cm in height) are connected at about 2 cm from the bottom with a glass tube about 1.5 cm in diameter and about 10 cm in length (graduated at 5-mm intervals for 5 cm at the center). The one glass cylinder was filled with about 60 g of non-treated soil adjusted to a moisture content of about 25%, and the other glass cylinder was filled with about 0.29 g of filter paper (5.5 mm in diameter). The glass tube was filled, at a thickness of 1 cm, with test soil prepared by mixing 2.4 g of non-treated sandy soil which had passed through a 20-mesh screen and had been dried at 60° C. until a constant weight had been achieved, with 0.45 g of the solution of the test composition of a predetermined concentration, and the mixture was allowed to stand for 3 weeks in a room without weather resistance treatment. The glass tube was connected to the glass cylinders.
In the glass cylinder filled with non-treated soil, 200 workers and 20 soldiers of Coptotermes formosanusus Shiraki were placed, and the testing apparatus was kept at a constant temperature chamber controlled at a temperature of 28° C., and a relative humidity of 70% or higher.
The bored depth (millimeters=mm), damage by eating, and the termite control effect were determined 14 days after insects were put in place, and the effect was evaluated in accordance with the following criteria: […]

[1] = Concentration (%) 0.05, single ingredient
[2] = Coptotermes, soil, 336 h, read-out: Termite control effect 14 days later
[3] = Concentration (%) 0.005, single ingredient
[4] = Concentration (%) 0.01, single ingredient
[5] = Concentration (%) 0.025, single ingredient
[6] = Concentration (%) 0.02, single ingredient
[7] = Concentration (%) 0.1, single ingredient
[8] = Concentration (%) 0.002, single ingredient

Row | Structure (SMILES) | Damage by eating 14 days later [1] | Bored depth (mm) 14 days later [1] [mm] | pest or weed control at 0.05 % [2] [%] | Damage by eating 14 days later [3] | Bored depth (mm) 14 days later [3] [mm] | Damage by eating 14 days later [4] | Bored depth (mm) 14 days later [4] [mm] | pest or weed control at 0.005 % [2] [%] | pest or weed control at 0.01 % [2] [%] | Damage by eating 14 days later [6] | Bored depth (mm) 14 days later [6] [mm] | further results
1 | CC(C)[C@H](Nc1ccc(C(F)(F)F)cc1Cl)C(=O)OC(C#N)c1cccc(Oc2ccccc2)c1 (stereo partly drawn) [Fluvalinate] | +++ (51% or more compared with non-treatment) | >10 | < 49 |  |  |  |  |  |  |  |  | 
2 | Cc1c(COC(=O)[C@@H]2[C@H](/C=C(\Cl)C(F)(F)F)C2(C)C)cccc1-c1ccccc1 (racemic) [Bifenthrin, 2-methylbiphenyl-3-yl-methyl (Z)-1RS,3RS)-3-(2-chloro-3,3,3-trifluoroprop-1-enyl)-2-2-dimnethylcyclopropane carboxylate] |  |  |  | +++ (51% or more compared with non-treatment) | >10 | +++ (51% or more compared with non-treatment) | >10 | < 49 | < 49 |  |  | 
3 | CC1(C)C(C=C(Cl)Cl)C1C(=O)OC(C#N)c1cccc(Oc2ccccc2)c1 (racemic) [Cypermethrin, (RS)-a-cyano-3-phenoxybenzyl (1RS,3RS)-(1RS,3SR)-3-(2,2-dichlorovinyl)-2,2-dimethylcyclopropane carboxylate] |  |  |  | +++ (51% or more compared with non-treatment) | >10 |  |  | < 49 |  |  |  | Damage by eating 14 days later [5]: None; Bored depth (mm) 14 days later [5]: >10 mm; pest or weed control at 0.025 % [2]: < 49%
4 | N#Cc1nn(-c2c(Cl)cc(C(F)(F)F)cc2Cl)c(N)c1[S+]([O-])C(F)(F)F (stereo not drawn) [Compound A, 5-amino-3-cyano-1-(2,6-dichloro-4-trifluoromethylphenyl)-4-trifluoromethylsulphinylpyrazole] |  |  |  | ++ (11-50% or less compared with non-treatment) | >10 | + (10% or less compared with non-treatment) | >10 | 100 | 100 | + (10% or less compared with non-treatment) | >10 | pest or weed control at 0.02 % [2]: 100%
5 | CCOc1ccc(C(C)(C)COCc2cccc(Oc3ccccc3)c2)cc1 [Ethofenprox, 2-(4-ethoxyphenyl)-2-methylpropyl-3-phenoxybenzyl ether] |  |  |  |  |  |  |  |  |  | +++ (51% or more compared with non-treatment) | >10 | Termite control effect 14 days later [6]: D (49% lethal or less); Damage by eating 14 days later [7]: None; Termite control effect 14 days later [7]: D (49% lethal or less); Bored depth (mm) 14 days later [7]: >10 mm
6 | CC1(C)[C@H](C(=O)O[C@@H](C#N)c2ccc(F)c(Oc3ccccc3)c2)[C@@H]1C=C(Cl)Cl (racemic) [Cyfluthrin, (RS)-a-cyano-4-fluoro-3-phenoxybenzyl (1RS, 3RS)-(1RS, 3RS)-3-(2,2-dichlorovinyl)-2,2-dimethylcyclopropane carboxylate] |  |  |  | +++ (51% or more compared with non-treatment) | >10 |  |  |  |  |  |  | Termite control effect 14 days later [3]: D (49% lethal or less); Damage by eating 14 days later [5]: None; Termite control effect 14 days later [5]: D (49% lethal or less); Bored depth (mm) 14 days later [5]: >10 mm
7 | CC1(C)[C@H](C(=O)O[C@H](C#N)c2cccc(Oc3ccccc3)c2)[C@@H]1C(Br)C(Br)(Br)Br (stereo partly drawn) [Tralomethrin, (S)-a-cyano-3-phenoxybenzyl (1R,3S)-2,2-dinethyl-3-(1,2,2,2-tetrabromoethyl)cyclopropane carboxylate] |  |  |  |  |  | +++ (51% or more compared with non-treatment) | >10 |  |  |  |  | Damage by eating 14 days later [8]: +++ (51% or more compared with non-treatment); Bored depth (mm) 14 days later [8]: >10 mm; pest or weed control at 0.002 % (Coptotermes, soil, 336 h, Concentration (%) 0.002, single ingredient, read-out: Termite control effect 14 days later): < 49%; pest or weed control at 0.01 % (Coptotermes, soil, 336 h, Concentration (%) 0.01, single ingredient, read-out: Termite control effect 14 days later): < 49%
8 | CCOc1ccc([Si](C)(C)CCCc2ccc(F)c(Oc3ccccc3)c2)cc1 [Silafluofen, 4-ethoxyphenyl-[3-(3-phenoxy-4-fluorophenyl)propyl](dimnethyl)silane] | + (10% or less compared with non-treatment) | >10 | 100 |  |  | +++ (51% or more compared with non-treatment) | >10 |  | < 49 |  |  | 
9 | CC(C)C(C(=O)OC(C#N)c1cccc(Oc2ccccc2)c1)c1ccc(Cl)cc1 (racemic) [Fenvalerate, (RS)-a-cyano-3-phenoxybenzyl (RS)-2-(4-chlorophenyl)-3-methylbutanoate] | + (10% or less compared with non-treatment) | >10 | 100 |  |  | +++ (51% or more compared with non-treatment) | >10 |  | < 49 |  |  | 
10 | CC1(C)C(C=C(Cl)Cl)C1C(=O)OCc1cccc(Oc2ccccc2)c1 (racemic) [Permethrin, 3-phenoxybenzyl (1RS,3RS)-(1RS,3RS)-(2,2-dichlorovinyl)-2,2-diimethylcyclopropane carboxylate] |  |  |  |  |  |  |  |  |  | +++ (51% or more compared with non-treatment) | >10 | Damage by eating 14 days later [7]: None; Bored depth (mm) 14 days later [7]: >10 mm; pest or weed control at 0.02 % [2]: < 49%; pest or weed control at 0.1 % [2]: < 49%

— patent US6472417B1, “Synergistic pesticidal composition of pyrethroid and N-phenyl-pyrazole” (priority 1994, dated 2002)
